Measurements reported in patent publication US5807825A, “Platelet aggregation inhibitors” (COR Therapeutics, Inc., priority 1995, dated 1998).
Where a SMILES comes first, the peptide text is derived from it. Bridges are numbered along the chain shown (N, C = ends).

Assays:
GP IIb-IIIa = target: T1, GP IIb-IIIa (Homo sapiens, UniProt P05106+P08514); test: plate assay: binding of labeled ligand (fibrinogen, vWF) to immobilized purified GP IIb-IIIa; conditions: plate assays, in words; FIGS. 2A-2C, 30A-30E
T1 construct: Purified platelet GP IIb-IIIa receptor was prepared as described by Fitzgerald, L. A., et al; from tissue; host or cells: platelets
Experimental: In the assay, GP IIb-IIIa, prepared in purified form, for example as described by Fitzgerald, L. A., et al., Anal Biochem (1985) 151:169-177, incorporated herein by reference, is coated onto a solid support such as beads, test tubes, or microtiter plates. […] Fibrinogen is typically provided at a concentration of about 5-50 nM and the test material can, if desired, be added at a series of dilutions. Typical incubations are 2-4 hr at 35° C., the time and temperature being interdependent.
After incubation, the solution containing the fibrinogen and test material is removed and the level of binding of fibrinogen measured by quantitating bound fibrinogen to GP IIb-IIIa. Any suitable means of detection may be used, but it is convenient to employ labeled fibrinogen, for example using radioactive, fluorescent or biotinylated labels. Such methods are well known and need not be elaborated here.
In this case, percent inhibition may be calculated using the amount of Fg bound in the control as representing the basis, so that [formula] Other measures of inhibition effectiveness, such as IC50, may also be used.
Purified platelet GP IIb-IIIa receptor was prepared as described by Fitzgerald, L. A., et al., Anal Biochem (1985) 151:169-177. […] After purification, the receptors were stored in 0.1% Triton X-100 at 0.1-1.0 mg/ml. […]
The labeled ligands were added to the receptor-coated wells at final concentration of 10 nM (100 ul/well) and incubated for 3 h at 30° C. in the presence or absence of the test samples. After incubation, the wells are aspirated to dryness and bound ligand is quantitated.
For ^125 I-labeled ligands, the protein is solubilized with 250 ul SDS. For biotinylated ligands, the bound protein is detected by the addition of antibiotin antibody conjugated to alkaline phosphatase followed by addition of substrate (p-nitrophenyl phosphate), and determination of the optical density of each well at 405 nm. […]

M21 melanoma cells = test: attachment of 35S-methionine labelled M21 melanoma cells to vitronectrin-coated plates; type: cell-based; conditions: FIGS. 31-34
Experimental: M21 melanoma cells, which express high levels of the vitronectrin receptor, were metabolically labelled with ^35 S-methionine, and then added to 24-well tissue culture plates coated with vitronectrin. An incubation period of 1 hr at 37° C. was allowed for cell attachment, and this was followed by a wash to remove non-adherent cells. After washing, the adherent cells were solubilized, and the supernatants placed in a liquid scintillation counter. The fraction of cells remaining adherent was calculated by dividing the cpm in the solubilized supernatants by the cpm in the total number of cells added to each well. The effects of purified snake venom peptides and synthetic cyclic peptides on cell adhesion was determined by including them with the M21 cells during the incubation period.
M21 melanoma cells were labelled with ^35 S-methionine, and then added to vitronectrin-coated plates in the presence of the indicated concentrations of purified snake venom peptides. Cell attachment was measured by solubilizing the cells remaining after an incubation and wash, as described in Section C, on page 40.

[1] = test system: thrombi formation in dog coronary arteries; test: Folts model of thrombosis, cyclic flow reductions (CFRs) in open chest dog coronary artery; type: in vivo
Experimental: A. Initiation of cyclic flow reductions (CFRs) in open chest dog. An occluder placed on the left anterior descending (LAD) coronary artery of a 20 kg dog, as previously described was performed.

vitronectrin receptor [2] = target: T2, vitronectrin receptor (Homo sapiens, UniProt P05106+P06756); conditions: background art; compared with same peptide before cyclization; cited from earlier work
T2 construct: Vitronectrin receptor was prepared as described by Smith, J. W., J Biol Chem (1988) 263:18726-18731; from tissue

fibronectin receptor = fibronectin receptor (Homo sapiens, UniProt P05556+P08648); conditions: background art; cited from earlier work
vitronectrin receptor [3] = target: T2, vitronectrin receptor; test: plate assay: binding of labeled ligand (vitronectrin, vWF) to immobilized vitronectrin receptor; conditions: FIGS. 26-28

T1 sequence (P08514 32-887 limits assumed): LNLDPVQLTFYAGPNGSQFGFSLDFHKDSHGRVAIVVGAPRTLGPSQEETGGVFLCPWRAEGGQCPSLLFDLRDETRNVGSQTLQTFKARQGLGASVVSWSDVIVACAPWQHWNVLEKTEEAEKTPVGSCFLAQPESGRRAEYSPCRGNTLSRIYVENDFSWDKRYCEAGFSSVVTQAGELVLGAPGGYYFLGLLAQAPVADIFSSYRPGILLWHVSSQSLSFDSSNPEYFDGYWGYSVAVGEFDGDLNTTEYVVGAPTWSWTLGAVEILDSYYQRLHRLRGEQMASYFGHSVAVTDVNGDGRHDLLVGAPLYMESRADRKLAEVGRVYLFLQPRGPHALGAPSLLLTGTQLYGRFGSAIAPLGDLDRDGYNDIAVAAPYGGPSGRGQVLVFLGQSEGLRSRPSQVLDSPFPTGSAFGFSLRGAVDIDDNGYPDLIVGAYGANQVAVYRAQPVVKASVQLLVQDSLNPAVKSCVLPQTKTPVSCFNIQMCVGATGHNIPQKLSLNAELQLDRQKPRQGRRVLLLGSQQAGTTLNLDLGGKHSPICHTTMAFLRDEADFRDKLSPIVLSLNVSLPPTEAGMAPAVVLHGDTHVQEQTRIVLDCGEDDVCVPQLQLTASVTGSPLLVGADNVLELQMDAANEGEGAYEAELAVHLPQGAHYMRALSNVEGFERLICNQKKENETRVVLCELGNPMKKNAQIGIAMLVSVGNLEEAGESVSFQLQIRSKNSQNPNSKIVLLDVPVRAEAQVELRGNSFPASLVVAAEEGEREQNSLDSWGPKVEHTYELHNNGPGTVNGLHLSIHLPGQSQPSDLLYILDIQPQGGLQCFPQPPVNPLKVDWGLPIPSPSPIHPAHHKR
T1 sequence (P08514 891-1039 partner limits assumed): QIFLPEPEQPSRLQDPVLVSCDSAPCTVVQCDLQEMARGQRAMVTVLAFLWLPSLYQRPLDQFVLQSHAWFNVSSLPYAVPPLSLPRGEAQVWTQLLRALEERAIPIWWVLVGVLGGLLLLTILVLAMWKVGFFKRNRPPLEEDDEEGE
T1 sequence (P05106 27-788): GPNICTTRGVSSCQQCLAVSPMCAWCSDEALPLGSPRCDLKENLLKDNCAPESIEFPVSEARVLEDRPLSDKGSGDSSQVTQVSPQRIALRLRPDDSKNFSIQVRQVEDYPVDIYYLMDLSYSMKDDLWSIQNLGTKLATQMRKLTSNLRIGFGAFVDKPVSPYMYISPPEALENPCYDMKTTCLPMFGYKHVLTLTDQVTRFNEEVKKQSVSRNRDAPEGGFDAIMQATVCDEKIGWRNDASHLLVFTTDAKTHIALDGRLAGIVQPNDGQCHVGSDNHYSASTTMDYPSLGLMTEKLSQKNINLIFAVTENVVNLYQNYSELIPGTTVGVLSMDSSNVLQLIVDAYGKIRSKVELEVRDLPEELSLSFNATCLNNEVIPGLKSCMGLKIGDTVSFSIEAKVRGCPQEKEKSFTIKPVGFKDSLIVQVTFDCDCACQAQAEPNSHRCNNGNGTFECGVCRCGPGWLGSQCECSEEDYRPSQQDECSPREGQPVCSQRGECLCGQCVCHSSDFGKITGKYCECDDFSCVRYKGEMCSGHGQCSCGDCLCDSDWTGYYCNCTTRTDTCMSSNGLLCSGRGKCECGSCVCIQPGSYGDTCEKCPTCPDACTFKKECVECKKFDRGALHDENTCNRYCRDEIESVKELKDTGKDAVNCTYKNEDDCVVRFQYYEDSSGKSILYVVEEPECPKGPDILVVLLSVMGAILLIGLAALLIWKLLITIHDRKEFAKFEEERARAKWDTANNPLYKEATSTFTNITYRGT
T2 sequence (P06756 31-889 limits assumed): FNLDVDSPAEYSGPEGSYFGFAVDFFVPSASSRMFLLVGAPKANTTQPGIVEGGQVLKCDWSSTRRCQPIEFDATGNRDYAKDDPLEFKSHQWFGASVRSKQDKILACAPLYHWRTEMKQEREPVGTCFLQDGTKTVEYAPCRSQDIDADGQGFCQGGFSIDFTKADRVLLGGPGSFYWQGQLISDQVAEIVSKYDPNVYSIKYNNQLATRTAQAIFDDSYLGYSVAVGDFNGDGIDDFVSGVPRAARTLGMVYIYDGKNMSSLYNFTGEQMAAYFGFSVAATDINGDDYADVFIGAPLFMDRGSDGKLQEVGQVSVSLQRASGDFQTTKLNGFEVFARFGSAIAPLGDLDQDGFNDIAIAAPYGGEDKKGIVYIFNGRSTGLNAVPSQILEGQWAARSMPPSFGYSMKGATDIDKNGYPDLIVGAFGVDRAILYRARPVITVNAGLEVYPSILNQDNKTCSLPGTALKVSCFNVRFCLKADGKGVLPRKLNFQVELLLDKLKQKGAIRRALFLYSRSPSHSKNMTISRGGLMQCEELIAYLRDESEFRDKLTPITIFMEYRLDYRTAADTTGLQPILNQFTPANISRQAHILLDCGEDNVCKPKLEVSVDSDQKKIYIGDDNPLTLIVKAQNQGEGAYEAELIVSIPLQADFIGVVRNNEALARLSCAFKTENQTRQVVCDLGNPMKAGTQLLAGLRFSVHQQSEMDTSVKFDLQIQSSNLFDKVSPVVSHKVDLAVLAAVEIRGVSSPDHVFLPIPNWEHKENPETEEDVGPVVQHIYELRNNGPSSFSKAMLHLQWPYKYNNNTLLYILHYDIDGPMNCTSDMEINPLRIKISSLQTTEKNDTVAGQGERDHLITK
T2 sequence (P06756 891-1048 partner limits assumed): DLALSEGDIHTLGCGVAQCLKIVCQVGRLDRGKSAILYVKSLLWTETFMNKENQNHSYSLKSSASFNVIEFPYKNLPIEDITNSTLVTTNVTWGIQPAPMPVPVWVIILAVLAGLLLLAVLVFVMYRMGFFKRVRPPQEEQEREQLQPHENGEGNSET
T2 sequence (P05106 27-788): as the sequence (P05106 27-788) above
Chain of fibronectin receptor (P08648 42-894 limits assumed): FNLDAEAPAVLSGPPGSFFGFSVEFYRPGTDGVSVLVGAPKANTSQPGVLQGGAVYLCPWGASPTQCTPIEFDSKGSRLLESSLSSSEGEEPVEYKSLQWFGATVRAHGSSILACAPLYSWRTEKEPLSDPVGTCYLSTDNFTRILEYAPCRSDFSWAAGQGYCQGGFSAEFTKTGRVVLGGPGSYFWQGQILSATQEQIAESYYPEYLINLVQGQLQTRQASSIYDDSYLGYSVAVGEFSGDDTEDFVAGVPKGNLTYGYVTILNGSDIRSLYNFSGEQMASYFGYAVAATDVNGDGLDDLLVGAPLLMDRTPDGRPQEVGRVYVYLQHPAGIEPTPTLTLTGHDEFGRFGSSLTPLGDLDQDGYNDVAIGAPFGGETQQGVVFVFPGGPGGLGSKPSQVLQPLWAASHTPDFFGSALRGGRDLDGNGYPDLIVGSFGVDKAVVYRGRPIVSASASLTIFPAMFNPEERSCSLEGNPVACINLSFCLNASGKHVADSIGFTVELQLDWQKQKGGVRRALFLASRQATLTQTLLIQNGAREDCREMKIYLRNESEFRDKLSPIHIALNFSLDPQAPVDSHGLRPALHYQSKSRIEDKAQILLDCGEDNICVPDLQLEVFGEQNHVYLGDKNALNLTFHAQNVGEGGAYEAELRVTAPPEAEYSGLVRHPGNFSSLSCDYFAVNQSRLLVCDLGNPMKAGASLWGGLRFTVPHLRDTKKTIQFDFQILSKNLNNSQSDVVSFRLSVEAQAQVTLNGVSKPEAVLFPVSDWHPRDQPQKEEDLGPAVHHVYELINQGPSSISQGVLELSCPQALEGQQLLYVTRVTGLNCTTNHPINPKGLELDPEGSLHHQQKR
Chain of fibronectin receptor (P08648 895-1049 partner limits assumed): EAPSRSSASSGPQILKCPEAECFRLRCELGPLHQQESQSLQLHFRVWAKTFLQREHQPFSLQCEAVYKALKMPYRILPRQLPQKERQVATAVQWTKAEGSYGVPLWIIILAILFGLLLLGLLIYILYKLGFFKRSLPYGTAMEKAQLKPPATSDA
Chain of fibronectin receptor (P05556 21-798): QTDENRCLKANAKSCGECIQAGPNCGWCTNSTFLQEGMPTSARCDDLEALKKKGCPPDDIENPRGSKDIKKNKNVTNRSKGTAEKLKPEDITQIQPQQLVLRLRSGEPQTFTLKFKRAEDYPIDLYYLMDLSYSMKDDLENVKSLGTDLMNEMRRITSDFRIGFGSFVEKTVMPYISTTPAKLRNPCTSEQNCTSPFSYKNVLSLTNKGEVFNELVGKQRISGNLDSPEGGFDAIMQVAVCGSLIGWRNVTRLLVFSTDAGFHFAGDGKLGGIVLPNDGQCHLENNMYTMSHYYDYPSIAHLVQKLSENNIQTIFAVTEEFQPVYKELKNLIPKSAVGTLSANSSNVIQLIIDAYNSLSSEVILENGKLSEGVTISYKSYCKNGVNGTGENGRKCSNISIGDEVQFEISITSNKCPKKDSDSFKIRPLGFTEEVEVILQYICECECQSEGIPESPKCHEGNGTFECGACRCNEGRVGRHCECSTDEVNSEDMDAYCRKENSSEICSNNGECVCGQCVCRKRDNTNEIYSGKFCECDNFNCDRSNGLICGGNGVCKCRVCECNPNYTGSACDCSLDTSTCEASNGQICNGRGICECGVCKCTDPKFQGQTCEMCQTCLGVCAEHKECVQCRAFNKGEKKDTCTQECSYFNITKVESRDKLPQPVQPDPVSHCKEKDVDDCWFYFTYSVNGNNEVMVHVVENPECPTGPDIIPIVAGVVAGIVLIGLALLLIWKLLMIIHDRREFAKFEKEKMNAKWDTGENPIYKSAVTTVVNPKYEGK

| Molecule | specificity: inhibition of fibrinogen/GP IIb-IIIa binding compared with vitronectrin/vitronectrin receptor binding (GP IIb-IIIa) | effect on M21 cell adhesion/attachment to vitronectrin, in words (M21 melanoma cells) | other results |
| --- | --- | --- | --- |
| C[C@H](NC(=O)[C@@H]1CSSC[C@H](NC(=O)CN)C(=O)N[C@@H](CCCCN)C(=O)NCC(=O)N[C@@H](CC(=O)O)C(=O)N[C@@H](Cc2c[nH]c3ccccc23)C(=O)N1)C(N)=O [#7] (H-GCKGDWCA-NH2; disulfide 2-7) | quite specific | – | – |
| N=C(N)NCCC[C@H](N)C(=O)NCC(=O)N[C@@H](CC(=O)O)C(=O)N[C@@H](CO)C(=O)O [RGDS, reference compound] | – | potent inhibitors of cell attachment | – |
| NCCCC[C@@H]1NC(=O)CNC(=O)[C@@H](N)CSSC[C@@H](C(N)=O)NC(=O)[C@@H]2CCCN2C(=O)[C@H](Cc2c[nH]c3ccccc23)NC(=O)[C@H](CC(=O)O)NC(=O)CNC1=O [#5] (H-CGKGDWPC-NH2; disulfide 1-8) | quite specific | – | – |
| C[C@H](NC(=O)[C@@H]1CSSC[C@H](NC(=O)CN)C(=O)N[C@@H](CCCCN)C(=O)NCC(=O)N[C@@H](CC(=O)O)C(=O)N[C@@H](Cc2c[nH]c3ccccc23)C(=O)N2CCC[C@H]2C(=O)N1)C(N)=O [#4] (H-GCKGDWPCA-NH2; disulfide 2-8) | highest differential | – | – |
| C[C@H](NC(=O)[C@@H]1CSSC[C@H](NC(=O)CN)C(=O)NCC(=O)N[C@@H](CCCCN)C(=O)NCC(=O)N[C@@H](CC(=O)O)C(=O)N[C@@H](Cc2c[nH]c3ccccc23)C(=O)N2CCC[C@H]2C(=O)N1)C(N)=O [#3] | – | – | effect on cyclic flow reductions (CFRs) in LAD coronary artery ([1]; 10 mg into a peripheral vein, 20 kg open chest dog, FIG. 36): partial ablation of the CFRs; effect on cyclic flow reductions (CFRs) in LAD coronary artery ([1]; second infusion of 40 mg into a peripheral vein, FIG. 37): complete ablation of the CFRs |
| ECADGLCCDQCRFLKKGTVCRVAKGDWNDDTCTGQSC- D-C-P-R-N-G-L-Y-G (ECADGLCCDQCRFLKKGTVCRVAKGDWNDDTCTGQSCDCPRNGLYG) [Analog #1] | – | neither barbourin nor Peptide 1 (truncated barbourin) had a significant effect | – |
| C[C@H](NC(=O)[C@@H]1CSSC[C@H](NC(=O)CN)C(=O)NCC(=O)N[C@@H](CCCNC(=N)N)C(=O)NCC(=O)N[C@@H](CC(=O)O)C(=O)N[C@@H](Cc2c[nH]c3ccccc23)C(=O)N2CCC[C@H]2C(=O)N1)C(N)=O [reference compound] (H-GCGRGDWPCA-NH2; disulfide 2-9) | – | potent inhibitors of cell attachment | – |
| C[C@H](NC(=O)[C@@H]1CSSC[C@H](NC(=O)CN)C(=O)NCC(=O)N[C@@H](CCCCN)C(=O)NCC(=O)N[C@@H](CC(=O)O)C(=O)N[C@@H](Cc2c[nH]c3ccccc23)C(=O)N2CCC[C@H]2C(=O)N1)C(N)=O [Analog #3, G-C-G-K-G-D-W-P-C-A-NH2] | – | ineffective up to 60 uM | – |
| Gly-Pen-Gly-Arg-Gly-Asp-Ser-Pro-Cys-Ala (GRGDSPCA; N-terminal Gly-Pen; Pen-Cys disulfide cyclisation; printed: Gly-Arg-Gly-Asp-Ser-Pro-Cys-Ala) [cyclic peptide, disulfide bridge between Pen and Cys (Pierschbacher)] | – | – | inhibition of vitronectrin binding, in words (vitronectrin receptor [2]): able to inhibit vitronectrin binding more strongly than the same peptide before cyclization; inhibition of fibronectin binding, in words (fibronectin receptor): ineffective in inhibiting fibronectin binding |
| EEPCATGPCCRRCKFKRAGKVCRVAKGDWNNDYCTGK- S-C-D-C-P-R-N-P-W-N-G (EEPCATGPCCRRCKFKRAGKVCRVAKGDWNNDYCTGKSCDCPRNPWNG) [Analog #2] | – | – | inhibition of vitronectrin binding to vitronectrin receptor, in words (vitronectrin receptor [3]): inability to inhibit the binding of vitronectrin to the vitronectrin receptor |
